# Assay results from patent US20030236246A1, “Method for decreasing capillary permeability in the retina” (priority 2002, published 2003).
# Tests used:
# C57B/J6 mice = experiment: BRB breakdown in mice after intravitreal VEGF, quantitated with [3H]-mannitol tracer; assay type: in vivo
# Excerpt: Intraperitoneally administered radiolabeled tracer can be used to quantitate BRB breakdown in mice exposed to vascular endothelial growth factor (VEGF). This technique is particularly advantageous with neonatal mice because of the technical difficulty involved with intravascular injections. Also, the comparison of retinas from injected and control eyes to tissues without a blood-tissue barrier corrects for variations in the amount of isotope injected or absorbed into the circulation.
# Ten six- to seven-week-old C57B/J6 mice (Jackson Labs, Bar Harbor, Me.) are weighed to determine the proper dosage of anesthesia and tracer required. Mice are anesthetized with a solution containing 25 mg/kg ketamine (Ketaset; Fort Dodge Animal Health, Fort Dodge, Iowa) and 4 mg/kg rompun (Tranquived; Vedco, St. Joseph, Mo.) diluted 1:10 in saline prior to injection. Five mice are subjected to gavage with 50 mg/kg N-benzoyl staurosporine for three days prior to intravitreal administration of VEGF; the other five mice are subjected to gavage with vehicle.
# Tropicamide (1%) is used to dilate the pupils of anesthetized mice. Under a dissecting microscope, a Harvard injector (PLI 100) is used with a glass pipet pulled to a diameter of 13-20 μm to inject 1 μl of saline containing VEGF (R&D Systems, Minneapolis, Minn.). The eyes are entered posterior to the limbus, directing the pipet toward the optic nerve. The solution is then deposited just in front of the retina without inflicting any damage to the lens. […]
# One ml NCSII (Amersham, Chicago, Ill.) solubilizing solution is added to each vial and the vials are incubated overnight in a 50° C. water bath. […] The specimens are counted on a Wallac 1409 Liquid Scintillation Counter (Gaithersburg, :Md.).
# The counts per mg tissue are determined for treated (with N-benzoyl staurosporine) and untreated retina, lung, and kidney. Ratios of these values for treated or untreated retina/lung or kidney and for lung/kidney are calculated. […]
# C57BL/6J mice = experiment: PG-induced breakdown of the BRB in mice after intraocular injection of a vasopermeability factor; assay type: in vivo; conditions: 50 mg/kg/day by gavage for 3 days, then intraocular PGE1 or PGE2 10^-5 M
# Procedure: Six to seven week old male C57BL/6J mice are treated in accordance with the ARVO resolution on the care of animals in research. Mice are treated by gavage with vehicle or vehicle containing 50 mg/kg/day of PKC412, PTK787, SU1498, or Gleevec. After 3 days of treatment, mice are given an intraocular injection of 1 μl of vehicle containing a vasopermeability factor or vehicle alone.
# Mice are anesthetized with 25 mg/kg of ketamine and 4 mg/kg of xylazine, pupils are dilated with 1% tropicamide. Intraocular injections are performed as previously described with a Harvard pump microinjection apparatus and pulled glass micropipets. Each micropipet is calibrated to deliver 1 μl of vehicle upon depression of a foot switch. […] Some mice are used for quantitative measurement of BRB breakdown using [3H]mannitol and in others leakage of albumin through retinal vessels is assessed by Western blots or immunohistochemistry.
# Six or 24 hours after intraocular injections, mice are given an intraperitoneal injection of 1 μCi / gram body weight of [3H]mannitol (New England Nuclear, Boston, Mass.). […] The vials are weighed and the tissue weights are recorded. […] Radioactivity is counted with a Wallac 1409 Liquid Scintillation Counter (Gaithersburg, Md.). […]
# [1] = mice, 50 mg/kg by gavage for three days before intravitreal VEGF 10^-6 M, [3H]-mannitol at 6 hours
Compound,"leakage of radioactive tracer out of the retinal blood vessels (C57B/J6 mice; VEGF-injected mice given 50 mg/kg N-benzoyl staurosporine by gavage for three days, compared to vehicle-gavaged VEGF-injected mice)",retina/kidney ratio (C57B/J6 mice; [1]),retina/lung ratio (cpm per mg of retina/cpm per mg of lung) (C57B/J6 mice; [1]),PG-induced breakdown of the BRB (C57BL/6J mice)
CO[C@@H]1[C@H](N(C)C(=O)c2ccccc2)C[C@H]2O[C@]1(C)n1c3ccccc3c3c4c(c5c6ccccc6n2c5c31)C(=O)NC4 [N-benzoyl staurosporine],significantly less leakage,0.3881±0.0436,0.6326±0.0656,reduces PG-induced breakdown of the BRB
"Clc1ccc(Nc2nnc(Cc3ccncc3)c3ccccc23)cc1 [PTK787, reference compound]",–,–,–,not
